According to US20200405697A1, “Antitumor Agent” (Taiho Pharmaceutical Co., Ltd, priority 2017, published 2020):

Assays:
[1] = molecular target: T1, human RNR (histidine tagged human M1 and human M2 proteins) (Homo sapiens, UniProt P23921); assay: Human RNR inhibition effect (dCDP formation from CDP); format: biochemical; conditions: 10 μM CDP, 37° C. for 30 minutes, read-out: RNR inhibitory activity IC50
T1 construct: made in house; host or cells: Escherichia coli
T1 sequence (P23921 1-792): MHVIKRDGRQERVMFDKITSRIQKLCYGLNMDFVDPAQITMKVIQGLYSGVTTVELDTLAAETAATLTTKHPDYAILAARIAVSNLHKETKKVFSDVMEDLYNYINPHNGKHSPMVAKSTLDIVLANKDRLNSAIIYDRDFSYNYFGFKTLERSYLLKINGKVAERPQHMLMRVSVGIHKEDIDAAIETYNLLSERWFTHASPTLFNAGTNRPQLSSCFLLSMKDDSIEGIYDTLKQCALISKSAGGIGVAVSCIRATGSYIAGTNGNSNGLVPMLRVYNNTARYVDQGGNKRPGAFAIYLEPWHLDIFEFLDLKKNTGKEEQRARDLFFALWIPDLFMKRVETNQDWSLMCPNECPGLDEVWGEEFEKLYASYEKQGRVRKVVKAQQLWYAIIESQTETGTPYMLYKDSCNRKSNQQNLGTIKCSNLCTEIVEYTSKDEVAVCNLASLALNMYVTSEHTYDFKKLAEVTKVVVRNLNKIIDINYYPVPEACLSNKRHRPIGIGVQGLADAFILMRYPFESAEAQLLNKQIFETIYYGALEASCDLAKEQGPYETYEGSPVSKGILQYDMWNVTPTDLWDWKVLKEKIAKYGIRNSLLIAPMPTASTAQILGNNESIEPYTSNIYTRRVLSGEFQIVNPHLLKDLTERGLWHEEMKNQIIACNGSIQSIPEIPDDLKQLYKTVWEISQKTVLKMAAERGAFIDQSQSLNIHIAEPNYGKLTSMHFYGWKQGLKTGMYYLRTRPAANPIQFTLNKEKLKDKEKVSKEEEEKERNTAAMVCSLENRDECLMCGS
How it was run: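 His-tagged human M1 (isoform 1) and N-terminal 59-aa-truncated M2 (isoform 2), E. coli-expressed, Ni-purified, preincubated 20 min with compound (1% DMSO). Reaction with 10 μM CDP, 2 mM ATP, 0.24 mM NADPH, 6 mM DTT, 4 mM Mg acetate, 100 mM KCl, 50 mM HEPES pH 7.2, 30 min at 37° C. dCDP formed quantified by reverse-phase HPLC after heat stop.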

GB-1 cells = assay: Cell proliferation inhibitory effect on human cancer cell lines: GB-1; format: cell-based; conditions: GB-1, Glioblastoma, DMEM + 10% FBS, 3000 cell/well
Experimental: (§1) Human derived breast cancer cell line HCC 1806 cells (American Type Culture Collection, ATCC) were daily passaged at a cell density not exceeding 80% in ATCC recommended Roswell Park Memorial Institute medium (RPMI-1640) containing 10% fetal bovine serum (FBS). In order to start the test of cell proliferation inhibitory activity, HCC 1806 cells were suspended in the above medium, after seeing at 180 μL in each well of a 96-well flat bottom plate so that the number of cells per well was 2,000, the cells were cultured at 37° C. for 1 day in an incubator containing 5% carbon dioxide gas.
(§2) On the next day, the Example compound was dissolved in DMSO, and 20 μL of a drug additive solution diluted serially with distilled water to 10 times of the final concentration was added to each well of the culture plate of the cells, and the cells were cultured at 37° C. for 72 hours in an incubator containing 5% carbon dioxide gas. After culturing for 72 hours, 20 μL of glutaraldehyde was added to each well and allowed to stand for 30 minutes, then the plate was washed 10 times with water and was dried. 100 μL of a stain solution (0.05% crystal violet in a 20% methanol solution) was added to each well and allowed to stand for 30 minutes, then the plate was washed 10 times with water and was dried. 100 μL of an extract solution (0.1 N NaH2PO4: 100% ethanol=1:1) was added to each well and mixed, and the mixture was measured at a wavelength of 540 nm using a plate reader (MTP-450 manufactured by Corona Electric Co., Ltd.).
(§3) The growth inhibition rate was calculated from the following formula, and the concentration (IC50 (μM)) of a compound inhibiting 50% was determined.
(§4) According to the method of Test Example 2, the cell proliferation inhibitory effect on various cancer cell lines as described in Table 24 was evaluated. […]

MV-4-11 = assay: Antitumor effect in human-derived blood cancer cell line (MV-4-11) subcutaneous transplantation model (in vivo); design: species or system nude mouse (BALB/cA Jcl-nu/nu); conditions: oral, 100 mg/kg/day once per day for 14 days; RTV vs control group, Student-t test, p<0.05
Experimental: A human-derived blood cancer cell line MV-4-11 was transplanted subcutaneously into a nude mouse (BALB/cA Jcl-nu/nu, CLEA Japan, Inc.), and at the time when the tumor volume of the nude mouse on which the engrafted tumor reached 100 to 300 mm^3, four mice were assigned to each group by random stratification so that the average of the tumor volumes of each group was uniform (day 0), and the Example compound was orally administered daily at 100 mg/kg/day once per day for 14 days. Example Compound dosing solutions were prepared using 0.5% HPMC.
An electric balance for animals was used in body weight measurement. Rate of change in body weight on day n (BWCn) from body weight on day n (BWn) was calculated according to the following equation.
Rate of change in body weight BWCn (%)=(BWn−BW0)/BW0×100
Tumor volume (TV) was calculated according to the following equation by sandwiching and measuring the major axis and the minor axis with a digital caliper.
Tumor volume (mm^3)=Major axis (mm)×Minor axis (mm)×Minor axis (mm)/2
In order to compare the chronological transition of proliferation of tumor for the administration of each compound, relative tumor volume (RTV) setting the tumor volume at the time of grouping as 1 as the tumor proliferation rate was calculated according to the following formula, and the transition of the average value of RTV of each individual are shown in FIGS. 1 to 4.
RTV=(tumor volume at the day of tumor volume measurement)/(tumor volume at the time of the grouping)

HCC 1806 cells = assay: Cell proliferation inhibitory effect on human breast cancer cell line; format: cell-based; conditions: HCC1806, 72 h, crystal violet, read-out: Cell growth suppression IC50
Experimental: as §1, §2, §3
Growth inhibition rate (%){(C-B)−(T-B)}(C-B)×100
T: Absorbance of well to which Example compound was added
C: Absorbance of wells to which no Example compound was added
B: Absorbance of wells to which no cell was added

NCI-H460 cells = assay: Cell proliferation inhibitory effect on human cancer cell lines: NCI-H460; format: cell-based; conditions: 72 h, NCI-H460, Lung Cancer, ATCC recommended RPMI-1640 + 10% FBS, 1000 cell/well
Experimental: as §1
(§5) On the next day, the Example compound was dissolved in DMSO, and 20 μL of a drug additive solution diluted serially with distilled water to 10 times of the final concentration was added to each well of the culture plate of the cells, and the cells were cultured at 37° C. for 72 hours in an incubator containing 5% carbon dioxide gas. […] 100 μL of an extract solution (0.1 N NaH2PO4: 100% ethanol=1:1) was added to each well and mixed, and the mixture was measured at a wavelength of 540 nm using a plate reader (MTP-450 manufactured by Corona Electric Co., Ltd.). […]
as §4

ACHN cells = assay: Cell proliferation inhibitory effect on human cancer cell lines: ACHN; format: cell-based; conditions: 72 h, Kidney Cancer, EMEM + 10% FBS, 2000 cell/well
Experimental: as §1, §5, §4

A2780 cells = assay: Cell proliferation inhibitory effect on human cancer cell lines: A2780; format: cell-based; conditions: 72 h, A2780, Ovarian Cancer, RPMI-1640 + 10% FBS, 2000 cell/well
Experimental: as §1, §5, §4

[2] = tested on: non-small cell lung cancer cell line; conditions: combination with cytarabine or gemcitabine; Non-Patent Document 11; cited from earlier work
mouse leukemia models = conditions: combination with etoposide or cisplatin; Non-Patent Document 12; cited from earlier work
[3] = Non-Patent Document 10; cited from earlier work
RNR = molecular target: T2, RNR (Homo sapiens, UniProt P31350); conditions: Non-Patent Document 7; cited from earlier work
T2 sequence (P31350 1-389): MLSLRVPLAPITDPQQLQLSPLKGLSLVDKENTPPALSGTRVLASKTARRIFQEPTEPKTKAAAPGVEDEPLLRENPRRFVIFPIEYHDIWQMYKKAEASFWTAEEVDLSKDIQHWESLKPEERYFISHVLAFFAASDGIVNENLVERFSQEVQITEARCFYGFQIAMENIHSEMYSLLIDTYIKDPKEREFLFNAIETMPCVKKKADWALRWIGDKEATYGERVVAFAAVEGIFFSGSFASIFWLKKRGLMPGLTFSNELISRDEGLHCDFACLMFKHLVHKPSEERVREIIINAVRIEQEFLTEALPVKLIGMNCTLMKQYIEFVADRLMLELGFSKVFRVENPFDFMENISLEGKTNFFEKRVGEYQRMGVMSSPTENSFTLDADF

SMILES	IC50 [1]	antitumor effect (relative tumor volume, RTV) (MV-4-11)	IC50 (HCC 1806 cells)	further results
Cc1ccc(F)c([C@@H](C)[C@H](NS(=O)(=O)c2ccc(Cl)cc2C(N)=O)c2n[nH]c(=O)o2)c1C [Example 5]	140 nM	antitumor effect		IC50 (GB-1 cells): 1570 nM
CCc1ccc(F)c([C@@H](C)[C@H](NS(=O)(=O)c2ccc(Cl)cc2C(N)=O)c2n[nH]c(=O)o2)c1C [Example 11, 5-chloro-2-(N-((1S,2R)-2-(3-ethyl-6-fluoro-2-methylphenyl)-1-(5-oxo-4,5-dihydro-1,3,4-oxadiazol-2-yl)propyl)sulfamoyl)benzamide]	180 nM	antitumor effect		IC50 (GB-1 cells): 5220 nM
[2H]C([2H])([2H])C1(O)CCOc2c(S(=O)(=O)N[C@H](c3n[nH]c(=O)o3)[C@H](C)c3c(F)ccc(Cl)c3C)ccc(Cl)c21 (single isomer, unassigned) [Example 228A]	80 nM		140 nM	
[2H]C([2H])([2H])C1(O)CCOc2c(S(=O)(=O)N[C@H](c3n[nH]c(=O)o3)[C@H](C)c3c(F)ccc(C)c3C)ccc(Cl)c21 (single isomer, unassigned) [Example 200A]	30 nM	antitumor effect		IC50 (NCI-H460 cells): 130 nM; IC50 (ACHN cells): 130 nM; IC50 (A2780 cells): 130 nM
NC(=S)NN=Cc1ncccc1N [Example 3-AP, 3-aminopyridine-2-carboxaldehyde thiosemicarbazone]				cell proliferation inhibitory effect in combination [2]: enhancement in cell proliferation inhibitory effect; life extending effect in combination (mouse leukemia models): enhancement in life extending effect; side effects in clinical cases [3]: hypoxia, dyspnea, methemoglobinemia
NC(=O)NO [HU, hydroxyurea]				RNR inhibitory activity (RNR): very weak
CC(=O)OC1(C)CCOc2c(S(=O)(=O)N[C@H](c3n[nH]c(=O)o3)[C@H](C)c3c(F)ccc(C)c3C)ccc(Cl)c21 (stereo partly drawn) [Example 95, 5-chloro-8-(N-((1S,2R)-2-(6-fluoro-2,3-dimethylphenyl)-1-(5-oxo-4,5-dihydro-1,3,4-oxadiazol-2-yl)propyl)sulfamoyl)-4-methylchroman-4-ylacetate]	140 nM		140 nM	
COc1c(S(=O)(=O)N[C@H](c2n[nH]c(=O)o2)[C@H](C)c2c(F)ccc(C)c2C)ccc(Cl)c1C(C)O (stereo partly drawn) [Example 204, 4-chloro-N-((1S,2R)-2-(6-fluoro-2,3-dimethylphenyl)-1-(5-oxo-4,5-dihydro-1,3,4-oxadiazol-2-yl)propyl)-3-(1-hydroxyethyl)-2-methoxybenzenesulfonamide]	150 nM		150 nM	
Cc1c(Br)ccc(F)c1[C@@H](C)[C@H](NS(=O)(=O)c1ccc(Cl)c2c1OCCC2(C)O)c1n[nH]c(=O)o1 (single isomer, unassigned) [Example 222A]	80 nM	antitumor effect		
